# Measured values: patent US11535598B2, “Histone deacetylases (HDACs) inhibitors” (ANNJI PHARMACEUTICAL CO., LTD., priority 2017, dated 2022)
# How the values were obtained:
# Human HDAC1 = Human HDAC1 (Homo sapiens (Human), UniProt Q13547); experiment: HDAC enzymatic assay, HDAC1; type: biochemical; settings: 10-dose IC50 mode with a 3-fold serial dilution; read-out: HDAC subtypes IC50 HDAC1
# Description: (§1) The IC50 values for aforementioned compounds against HDACs were determined. HDAC 1 to 11 can be assayed by using acetylated AMC-labeled peptide substrate.
# (§2) Human HDAC1 GenBank Accession No. NM_004964): Full length with C-terminal GST tag, MW=79.9 kDa, Human HDAC2 (GenBank Accession No. Q92769): Full length with C-terminal His tag, MW=60 kDa. Human HDAC3/NcoR2 (GenBank Accession No. […] for HDAC3, GenBank Accession No. NM_006312 for NcoR2): Complex of human HDAC3, full length with C-terminal His tag, MW=49.7 kDa, and human NCOR2, N-terminal GST tag, MW=39 kDa. Human HDAC6 (GenBank Accession No. BC069243): Full length with N-terminal GST tag, MW=159 kDa. Human HDAC8 (GenBank Accession No. NM018486): Full length, MW=42 kDa, expressed in an E. coli expression system.
# (§3) Human HDAC1, Human HDAC2, Human HDAC3/NcoR2, Human HDAC6, Human HDAC10, and Human HDAC11 were all expressed by baculovirus expression system in Sf9 cells.
# (§4) 50 μM HDAC substrate. 1% DMSO final. Incubation for 2 hours at 30° C.
# Human HDAC8 = Human HDAC8 (Homo sapiens (Human), UniProt Q9BY41); experiment: HDAC enzymatic assay, HDAC8; type: biochemical; settings: 10-dose IC50 mode with a 3-fold serial dilution; read-out: HDAC subtypes IC50 HDAC8
# Chain of Human HDAC8 (Q9BY41 whole entry): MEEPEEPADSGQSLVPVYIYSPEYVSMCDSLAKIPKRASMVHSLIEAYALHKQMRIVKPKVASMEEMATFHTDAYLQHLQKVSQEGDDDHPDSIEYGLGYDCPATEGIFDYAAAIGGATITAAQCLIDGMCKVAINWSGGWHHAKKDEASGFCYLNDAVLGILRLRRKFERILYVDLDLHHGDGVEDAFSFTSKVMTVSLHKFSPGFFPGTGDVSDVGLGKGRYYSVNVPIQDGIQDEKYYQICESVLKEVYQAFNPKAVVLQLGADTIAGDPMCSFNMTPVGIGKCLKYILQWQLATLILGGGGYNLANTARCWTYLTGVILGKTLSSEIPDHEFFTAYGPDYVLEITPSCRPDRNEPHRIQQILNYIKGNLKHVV
# Description: as §1, §2, §4
# Human HDAC6 = Human HDAC6 (Homo sapiens (Human), UniProt Q9UBN7); experiment: HDAC enzymatic assay, HDAC6; type: biochemical; settings: 10-dose IC50 mode with a 3-fold serial dilution; read-out: HDAC subtypes IC50 HDAC6
# Chain of Human HDAC6 (Q9UBN7 whole entry): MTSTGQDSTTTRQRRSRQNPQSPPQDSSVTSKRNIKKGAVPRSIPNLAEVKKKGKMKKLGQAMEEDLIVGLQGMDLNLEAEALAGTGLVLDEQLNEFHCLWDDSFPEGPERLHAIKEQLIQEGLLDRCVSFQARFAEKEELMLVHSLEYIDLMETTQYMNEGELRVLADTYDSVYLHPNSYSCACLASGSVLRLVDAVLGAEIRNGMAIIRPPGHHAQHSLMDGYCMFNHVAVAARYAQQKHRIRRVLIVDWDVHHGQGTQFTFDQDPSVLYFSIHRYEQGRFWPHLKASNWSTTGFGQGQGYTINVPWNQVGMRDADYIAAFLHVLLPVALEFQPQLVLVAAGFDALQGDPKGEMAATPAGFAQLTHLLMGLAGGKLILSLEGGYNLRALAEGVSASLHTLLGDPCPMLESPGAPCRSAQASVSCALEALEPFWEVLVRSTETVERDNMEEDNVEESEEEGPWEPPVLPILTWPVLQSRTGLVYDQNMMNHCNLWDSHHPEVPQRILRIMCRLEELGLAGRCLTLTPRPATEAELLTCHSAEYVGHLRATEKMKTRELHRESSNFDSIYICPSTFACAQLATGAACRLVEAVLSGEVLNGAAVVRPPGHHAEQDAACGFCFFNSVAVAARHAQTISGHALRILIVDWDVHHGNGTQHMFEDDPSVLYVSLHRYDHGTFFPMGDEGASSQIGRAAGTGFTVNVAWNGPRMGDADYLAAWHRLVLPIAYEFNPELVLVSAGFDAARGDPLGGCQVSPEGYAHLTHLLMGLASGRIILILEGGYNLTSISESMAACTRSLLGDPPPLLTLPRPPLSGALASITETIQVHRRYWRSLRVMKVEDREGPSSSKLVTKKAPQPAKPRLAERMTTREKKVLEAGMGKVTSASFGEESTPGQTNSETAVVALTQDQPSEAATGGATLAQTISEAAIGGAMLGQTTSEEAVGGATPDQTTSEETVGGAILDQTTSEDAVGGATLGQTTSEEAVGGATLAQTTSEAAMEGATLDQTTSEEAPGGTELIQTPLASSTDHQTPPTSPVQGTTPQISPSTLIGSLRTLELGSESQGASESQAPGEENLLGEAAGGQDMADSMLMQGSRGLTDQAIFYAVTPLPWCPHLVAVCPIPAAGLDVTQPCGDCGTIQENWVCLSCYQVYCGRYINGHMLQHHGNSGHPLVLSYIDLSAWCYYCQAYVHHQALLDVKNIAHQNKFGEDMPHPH
# Description: as §1, §2, §3, §4
# Human HDAC11 = Human HDAC11 (Homo sapiens (Human), UniProt Q96DB2); experiment: HDAC enzymatic assay, HDAC11; type: biochemical; settings: 10-dose IC50 mode with a 3-fold serial dilution; read-out: HDAC subtypes IC50 HDAC11
# Chain of Human HDAC11 (Q96DB2 whole entry): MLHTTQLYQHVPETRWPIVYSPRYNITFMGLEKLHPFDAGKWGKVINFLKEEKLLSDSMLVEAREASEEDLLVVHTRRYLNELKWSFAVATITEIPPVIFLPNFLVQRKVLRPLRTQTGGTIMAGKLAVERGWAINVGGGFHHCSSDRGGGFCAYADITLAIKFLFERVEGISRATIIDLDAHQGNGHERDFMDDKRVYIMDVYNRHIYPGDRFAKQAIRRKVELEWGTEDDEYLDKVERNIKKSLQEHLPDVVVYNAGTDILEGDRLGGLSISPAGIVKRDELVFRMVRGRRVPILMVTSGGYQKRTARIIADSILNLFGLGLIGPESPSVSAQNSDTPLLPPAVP
# Description: as §1, §2, §3, §4
# U87MG = settings: human, 72 h
# Description: (§5) Cells were seeded in 96-well plates at a density of 5×10^3 cells per well and allowed to attach for 24 h before compound treatment. […] At end of the treatment period 72 h, 20 μl (5 mg/mL) 3-(4,5-dimethylthiazol-2-yl)-2,5-diphenyl-tetrazolium bromide (MTT) reagent was added each well. After 4 h incubation at 37° C., the supernatant was aspirated and the formazan crystals were dissolved in 100 μl of DMSO at 37° C. for 10 min with gentle agitation. The absorbance was measured at 570 nm using the Molecular Devices Microplate Reader. […] IC50 values were calculated from the relative viability values and concentrations by regression analysis.
# LNCap = settings: human, 72 h
# Description: as §5
# A549 = settings: human, 72 h
# Description: as §5
# PANC1 = settings: human, 72 h
# Description: as §5
# HepG2 = settings: human, 72 h
# Description: as §5
# in vitro [1] = settings: human
# Description: as §5
# in vitro [2] = settings: monkey
# Description: as §5
# HL60 = experiment: Cell proliferation assay MTT, HL60; settings: read-out: Cytotoxicity IC50 Leukemia HL60, 72 hr treated
# Description: as §5
# MV4-11 = experiment: Cell proliferation assay MTT, MV4-11; settings: human, MV4-11 leukemia cells, 72 h
# Description: as §5
# MOLM13 = experiment: Cell proliferation assay MTT, MOLM13; settings: human, MOLM13 leukemia cells, 72 h
# Description: as §5
# Chain of Human HDAC1 (Q13547 whole entry): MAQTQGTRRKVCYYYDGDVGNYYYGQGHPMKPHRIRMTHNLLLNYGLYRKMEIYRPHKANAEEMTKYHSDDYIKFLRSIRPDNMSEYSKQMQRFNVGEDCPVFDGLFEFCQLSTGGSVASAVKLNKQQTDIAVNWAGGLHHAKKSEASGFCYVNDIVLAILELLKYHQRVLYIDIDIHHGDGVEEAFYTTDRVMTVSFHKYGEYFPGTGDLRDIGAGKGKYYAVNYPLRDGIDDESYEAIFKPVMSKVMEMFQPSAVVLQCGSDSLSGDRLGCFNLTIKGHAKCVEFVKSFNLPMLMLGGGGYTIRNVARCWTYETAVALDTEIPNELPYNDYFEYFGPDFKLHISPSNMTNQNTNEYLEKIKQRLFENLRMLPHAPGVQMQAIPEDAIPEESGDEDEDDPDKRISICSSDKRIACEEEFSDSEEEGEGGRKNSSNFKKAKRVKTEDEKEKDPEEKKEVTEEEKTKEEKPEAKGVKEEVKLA
SMILES,IC50 (Human HDAC1),IC50 (Human HDAC8),IC50 (Human HDAC6),IC50 (Human HDAC11),IC50 (U87MG),IC50 (LNCap),IC50 (A549),IC50 (PANC1),IC50 (HepG2),IC50 at 72 h (in vitro [1]),IC50 at 72 h (in vitro [2]),IC50 (HL60),IC50 (MV4-11),IC50 (MOLM13)
"O=C(NO)c1ccc(Cn2c(=O)n(CCc3ccccc3)c(=O)c3ccc(F)cc32)cc1 [Compound 1, 4-((7-fluoro-2,4-dioxo-3-phenethyl-3,4-dihydroquinazolin-1(2H)-yl)methyl)-N-hydroxybenzamide]",9.41 µM,0.095 µM,0.008 µM,15.4 µM,–,–,–,–,–,–,–,–,–,–
"COc1ccc2c(=O)n(CCc3ccccc3)c(=O)n(Cc3ccc(C(=O)NO)cc3)c2c1 [Compound 2, N-hydroxy-4-((7-methoxy-2,4-dioxo-3-phenethyl-3,4-dihydroquinazol-1(2H)-yl)methyl)benzamide]",12 µM,0.731 µM,0.051 µM,–,> 10 µM,> 10 µM,> 10 µM,> 10 µM,> 10 µM,> 200 µM,> 10 µM,–,–,–
"O=C(NO)c1cccc(Cn2c(=O)n(CCc3ccccc3)c(=O)c3ccccc32)c1 [Compound 6, 3-((2,4-dioxo-3-phenethyl-3,4-dihydroquinazolin-1(2H)-yl)methyl)-N-hydroxybenzamide]",> 10 µM,0.653 µM,4.3 µM,> 10 µM,3.75 ± 0.13 µM,3.4 ± 0.21 µM,4.03 ± 0.12 µM,5.12 ± 0.32 µM,3.41 ± 0.34 µM,69.23 ± 0.27 µM,78.42 ± 0.22 µM,–,–,–
"N#Cc1ccc2c(=O)n(CCc3ccccc3)c(=O)n(Cc3cccc(C(=O)NO)c3)c2c1 [Compound 7, 3-((7-cyano-2,4-dioxo-3-phenethyl-3,4-dihydroquinazolin-1(2H)-yl)methyl)-N-hydroxybenzamide]",> 10 µM,0.235 µM,4.45 µM,–,–,–,–,–,–,–,–,–,–,–
"Cn1c(=O)c2ccc(Cl)cc2n(Cc2ccc(C(=O)NO)cc2)c1=O [Compound 10, 4-((7-chloro-3-methyl-2,4-dioxo-3,4-dihydroquinazolin-1(2H)-yl)methyl)-N-hydroxybenzamide]",2.72 µM,0.523 µM,0.004 µM,–,7.63 ± 0.12 µM,4.72 ± 0.16 µM,8.15 ± 0.17 µM,9.04 ± 0.21 µM,6.65 ± 0.22 µM,85.33 ± 0.34 µM,93.24 ± 0.37 µM,–,–,–
"O=C(NO)c1ccc(Cn2c(=O)n(Cc3ccccc3)c(=O)c3ccccc32)cc1 [Compound 11, 4-((3-benzyl-2,4-dioxo-3,4-dihydroquinazolin-1(2H)-yl)methyl)-N-hydroxybenzamide]",15.8 µM,0.486 µM,0.024 µM,37.5 µM,4.08 ± 0.11 µM,2.93 ± 0.62 µM,4.78 ± 0.11 µM,6.13 ± 0.17 µM,4.39 ± 0.07 µM,89.18 ± 0.62 µM,97.25 ± 0.31 µM,–,–,–
"O=C(NO)c1ccc(Cn2c(=O)n(CCc3ccccc3)c(=O)c3cccnc32)cc1 [Compound 12, 4-((2,4-dioxo-3-phenethyl-3,4-dihydropyrido[2,3-d]pyrimidin-1(2H)-yl)methyl)-N-hydroxybenzamide]",11.2 µM,1.07 µM,0.028 µM,25.1 µM,9.12 ± 0.23 µM,7.53 ± 0.23 µM,> 10 µM,> 10 µM,> 10 µM,159.1 ± 0.44 µM,166.4 ± 0.39 µM,–,–,–
"O=C(Cc1ccc(Cn2c(=O)n(CCc3ccccc3)c(=O)c3ccccc32)cc1)NO [Compound 16, 2-(4-((2,4-dioxo-3-phenethyl-3,4-dihydroquinazolin-1(2H)-yl)methyl)phenyl)-N-hydroxyacetamide]",–,–,–,–,6.28 ± 0.12 µM,6.05 ± 0.31 µM,7.07 ± 0.42 µM,8.73 ± 0.24 µM,6.99 ± 1.07 µM,163.2 ± 0.27 µM,160.3 ± 0.23 µM,2.77 ± 0.04 µM,3.04 ± 0.08 µM,3.29 ± 0.16 µM
"O=C(NO)c1ccc(Cn2c(=O)n(CCc3ccccc3O)c(=O)c3ccccc32)cc1 [Compound 18, N-hydroxy-4-((3-(2-hydroxyphenethyl)-2,4-dioxo-3,4-dihydroquinazolin-1(2H)-yl)methyl)benzamide]",8.83 µM,0.4 µM,0.006 µM,16.7 µM,–,–,–,–,–,–,–,–,–,–
"O=C(Cc1ccc(Cn2c(=O)n(CCc3ccccc3)c(=O)c3ccccc32)c(F)c1)NO [Compound 19, 2-(4-((2,4-dioxo-3-phenethyl-3,4-dihydroquinazolin-1(2H)-yl)methyl)-3-fluorophenyl)-N-hydroxyacetamide]",–,–,–,–,2.64 ± 0.04 µM,1.87 ± 0.18 µM,2.98 ± 0.12 µM,4.29 ± 0.08 µM,2.75 ± 0.02 µM,32.7 ± 0.03 µM,37.82 ± 0.03 µM,1.68 ± 0.09 µM,1.87 ± 0.03 µM,1.74 ± 0.08 µM
"O=C(NO)C(F)(F)c1ccc(Cn2c(=O)n(CCc3ccccc3)c(=O)c3ccccc32)cc1 [Compound 20, 2-(4-((2,4-dioxo-3-phenethyl-3,4-dihydroquinazolin-1(2H)-yl)methyl)phenyl)-2,2-difluoro-N-hydroxyacetamide]",–,–,–,–,9.67 ± 0.66 µM,9.97 ± 0.08 µM,> 10 µM,> 10 µM,7.43 ± 0.27 µM,> 200 µM,> 200 µM,–,–,–
"O=C(NO)c1ccc(Cn2c(=O)n(CCc3ccccc3)c(=O)c3ccsc32)cc1 [Compound 21, 4-((2,4-dioxo-3-phenethyl-3,4-dihydrothieno[2,3-d]pyrimidin-1(2H)-yl)methyl)-N-hydroxybenzamide]",6.66 µM,0.169 µM,0.015 µM,5.69 µM,2.93 ± 0.13 µM,0.98 ± 0.06 µM,3.22 ± 0.31 µM,4.72 ± 0.37 µM,3.55 ± 0.14 µM,63.11 ± 0.17 µM,81.51 ± 0.18 µM,–,–,–
"O=C(NO)c1ccc(Cn2c(=O)n(CCc3cccs3)c(=O)c3ccccc32)cc1 [Compound 24, 4-((2,4-dioxo-3-(2-(thiophen-2-yl)ethyl)-3,4-dihydroquinazolin-1(2H)-yl)methyl)-N-hydroxybenzamide]",10.7 µM,0.287 µM,0.011 µM,10 µM,4.18 ± 0.22 µM,3.83 ± 0.17 µM,4.69 ± 0.17 µM,> 10 µM,4.11 ± 0.27 µM,60.41 ± 0.22 µM,76.31 ± 0.32 µM,–,–,–
"O=C(NO)c1cc(Cn2c(=O)n(CCc3ccccc3)c(=O)c3ccccc32)cs1 [Compound 25, 4-((2,4-dioxo-3-phenethyl-3,4-dihydroquinazolin-1(2H)-yl)methyl)-N-hydroxythiophene-2-carboxamide]",> 30 µM,1.19 µM,1.19 µM,129 µM,5.23 ± 0.21 µM,5.77 ± 0.46 µM,6.25 ± 0.33 µM,8.13 ± 0.28 µM,5.31 ± 0.37 µM,105.1 ± 0.25 µM,106.3 ± 0.29 µM,–,–,–
"O=C(NO)c1ccc(Cn2c(=O)n(CCc3ccccc3)c(=O)c3ccc(C4CC4)cc32)cc1 [Compound 27, 4-((7-cyclopropyl-2,4-dioxo-3-phenethyl-3,4-dihydroquinazolin-1(2H)-yl)methyl)-N-hydroxybenzamide]",14.5 µM,3.06 µM,0.168 µM,10.5 µM,–,–,–,–,–,–,–,–,–,–
"CNc1ccc(CCn2c(=O)c3ccccc3n(Cc3ccc(C(=O)NO)cc3)c2=O)cc1 [Compound 29, N-hydroxy-4-((3-(4-(methylamino)phenethyl)-2,4-dioxo-3,4-dihydroquinazolin-1(2H)-yl)methyl)benzamide]",4.38 µM,1.42 µM,0.025 µM,3.8 µM,–,–,–,–,–,–,–,–,–,–
"O=C(NO)c1ccc(Cn2c(=O)n(CCc3ccc(N4CCOCC4)cc3)c(=O)c3ccccc32)cc1 [Compound 30, N-hydroxy-4-((3-(4-morpholinophenethyl)-2,4-dioxo-3,4-dihydroquinazolin-1(2H)-yl)methyl)benzamide]",9.79 µM,0.979 µM,0.014 µM,22.8 µM,–,–,–,–,–,–,–,–,–,–
